Our source for the T/C values is PubChem BioAssay AID280 (DTP/NCI, 2004).

This assay concerns nude mice, LOX melanoma ip, survival T/C. Put plainly: NCI In Vivo Anticancer Drug Screen. Data for tumor model Human Amelanotic Melanoma (LOX) (intraperitoneal) in NU/NU BALB/C (nude) mice. To be noted: endpoint: median survival time, higher = longer survival. Here is the method:
The antitumor activity of compounds was measured in mice bearing transplantable tumors. Survival or tumor size were measured and the results are expressed as the measurement made in the treated group (T) divided by the measurement made in the vehicle treated control group (C). The tumor model used in this assay is Human Amelanotic Melanoma (LOX) (intraperitoneal) in NU/NU BALB/C (nude) mice

[1] abbreviates: dose: 75.0 mg/kg/injection, schedule: Q04DX003 (ip), vehicle: saline with Tween-80.
Where [2] appears, read: dose: 75.0 mg/kg/injection, schedule: Q04DX003 (ip), vehicle: saline.
Where [3] appears, read: dose: 150.0 mg/kg/injection, schedule: Q04DX003 (ip), vehicle: saline with Tween-80.
Where [4] appears, read: dose: 150.0 mg/kg/injection, schedule: Q04DX003 (ip), vehicle: saline.
The mark [5] stands for this setting: dose: 300.0 mg/kg/injection, schedule: Q04DX003 (ip), vehicle: saline with Tween-80.
[6] abbreviates: dose: 600.0 mg/kg/injection, schedule: Q04DX003 (ip), vehicle: saline.
Where [7] appears, read: dose: 12.5 mg/kg/injection, schedule: Q04DX003 (ip), vehicle: saline + Tween-80 + alcohol.
Where [8] appears, read: dose: 25.0 mg/kg/injection, schedule: Q04DX003 (ip), vehicle: saline + Tween-80 + alcohol.

The structures appear in SMILES notation. Values joined by “and” are separate entries in the source; they are usually repeats but may differ in a detail not shown here. Equal values may be shown once. Inconclusive results and toxic doses are left out.

Consider `CCCCCCn1c(SC)nc(COC(=O)NC)c1COC(=O)NC`, for which the T/C (dose: 33.7 mg/kg/injection, schedule: Q04DX003 (ip), vehicle: saline) was 118 % of control; the T/C (dose: 40.1 mg/kg/injection, schedule: Q04DX003 (ip), vehicle: water) is 97 % of control; the T/C (dose: 60.1 mg/kg/injection, schedule: Q04DX003 (ip), vehicle: water) was 87 % of control; the T/C (dose: 67.5 mg/kg/injection, schedule: Q04DX003 (ip), vehicle: saline) was 171 % of control; the T/C (dose: 90.0 mg/kg/injection, schedule: Q04DX003 (ip), vehicle: water) is 97 % of control; the T/C (dose: 135.0 mg/kg/injection, schedule: Q04DX003 (ip), vehicle: saline) is 208 % of control. The T/C (dose: 135.0 mg/kg/injection, schedule: Q04DX003 (ip), vehicle: water) is 86 % of control and the T/C (dose: 202.4 mg/kg/injection, schedule: Q04DX003 (ip), vehicle: water) is 99 % of control.

As for `CCOC(=O)Nc1cc2c(c(N)n1)N=C(c1ccc3ccccc3c1)CN2`, the T/C is 100 % of control (dose: 14.4 mg/kg/injection, schedule: Q04DX003 (ip), vehicle: saline with Tween-80); 123 % of control (dose: 24.0 mg/kg/injection, schedule: Q04DX003 (ip), vehicle: saline with Tween-80); 103 % of control and 112 % of control (dose: 40.0 mg/kg/injection, schedule: Q04DX003 (ip), vehicle: saline with Tween-80); 109 % of control (dose: 66.66 mg/kg/injection, schedule: Q04DX003 (ip), vehicle: saline with Tween-80); 111 % of control (dose: 67.0 mg/kg/injection, schedule: Q04DX003 (ip), vehicle: saline with Tween-80); 112 % of control (dose: 111.0 mg/kg/injection, schedule: Q04DX003 (ip), vehicle: saline with Tween-80). Besides, the T/C (dose: 185.0 mg/kg/injection, schedule: Q04DX003 (ip), vehicle: saline with Tween-80) is 122 % of control.

For the molecule `N=C1CCCS1`, the T/C was 114 % of control (dose: 10.0 mg/kg/injection, schedule: Q04DX003 (ip), vehicle: saline); 96 % of control (dose: 20.0 mg/kg/injection, schedule: Q04DX003 (ip), vehicle: saline); 102 % of control (dose: 40.0 mg/kg/injection, schedule: Q04DX003 (ip), vehicle: saline); 113 % of control (dose: 80.0 mg/kg/injection, schedule: Q04DX003 (ip), vehicle: saline); 116 % of control (dose: 160.0 mg/kg/injection, schedule: Q04DX003 (ip), vehicle: saline).

Take `CC(C)NC(=O)OCc1c(COC(=O)NC(C)C)c(-c2ccc(Cl)c(Cl)c2)n2c1CCC2`: the T/C was 238 % of control under setting [1]; 152 % of control under setting [2]; 324 % of control under setting [3]; 210 % of control under setting [4]; 313 % of control under setting [5]; 178 % of control (dose: 300.0 mg/kg/injection, schedule: Q04DX003 (ip), vehicle: saline). Moreover, the T/C runs as follows: under setting [6], 344 % of control; (dose: 1200.0 mg/kg/injection, schedule: Q04DX003 (ip), vehicle: saline) 344 % of control.

For the molecule `Cc1cc(O)c2c(c1O)C(=O)C13C(=C2O)C(=O)C2C(O)C1C1C(O)C3C(=O)C3=C(O)c4c(O)cc(C)c(O)c4C(=O)C321` (stereo not given), the T/C (dose: 6.25 mg/kg/injection, schedule: Q04DX003 (ip), vehicle: saline with Tween-80) is 114 % of control.

Consider `O=C1C(=O)c2cccnc2-c2ncccc21`, for which the T/C is, setting by setting: (dose: 2.5 mg/kg/injection, schedule: Q04DX003 (ip), vehicle: Klucel (hydroxypropylcellulose) (HPC)) 94 % of control; (dose: 5.0 mg/kg/injection, schedule: Q04DX003 (ip), vehicle: Klucel (hydroxypropylcellulose) (HPC)) 101 % of control.

For the molecule `COc1cccc2c1C(=O)c1c(O)c3c(c(O)c1C2=O)C[C@@](O)(C(=O)CO)C[C@@H]3OC1CC(N)C(O)C(C)O1` (stereo not given in full), the T/C reads like this: (dose: 0.25 mg/kg/injection, schedule: Q01DX015 (ip), vehicle: water) 162 % of control; (dose: 0.5 mg/kg/injection, schedule: Q01DX015 (ip), vehicle: water) 167 % of control; (dose: 1.0 mg/kg/injection, schedule: Q01DX005 (ip), vehicle: water) 208 % of control; (dose: 1.0 mg/kg/injection, schedule: Q01DX015 (ip), vehicle: water) 152 % of control; (dose: 1.0 mg/kg/injection, schedule: Q04DX003 (ip), vehicle: water) 270 % of control; (dose: 2.0 mg/kg/injection, schedule: Q01DX001 (ip), vehicle: water) 197 % of control. Besides, the T/C reads like this: (dose: 2.0 mg/kg/injection, schedule: Q04DX003 (ip), vehicle: water) 203 % of control; (dose: 4.0 mg/kg/injection, schedule: Q01DX001 (ip), vehicle: water) 240 % of control; (dose: 4.0 mg/kg/injection, schedule: Q04DX003 (ip), vehicle: saline) 107 % of control; (dose: 4.0 mg/kg/injection, schedule: Q04DX003 (ip), vehicle: water) 151 % of control; (dose: 4.0 mg/kg/injection, schedule: Q04DX003 (iv), vehicle: saline) 158 % of control; (dose: 8.0 mg/kg/injection, schedule: Q04DX003 (ip), vehicle: saline) 122 % of control. For the same molecule, the T/C is 275 % of control (dose: 8.0 mg/kg/injection, schedule: Q04DX003 (iv), vehicle: saline) and 101 % of control (dose: 16.0 mg/kg/injection, schedule: Q04DX003 (ip), vehicle: saline).

`O=C(CCCCCCC(=O)ON1C(=O)CCC1=O)ON1C(=O)CCC1=O`: the T/C under setting [1] is 117 % of control, the T/C under setting [3] was 101 % of control and the T/C under setting [5] is 98 % of control.

`CC1OC(O[C@H]2/C=C/C=C/C=C/C=C/C=C/C=C/C=C/[C@H](C)[C@@H](O)[C@@H](C)[C@H](C)OC(=O)C[C@H](O)C[C@H](O)CC[C@@H](O)[C@H](O)C[C@H](O)C[C@]3(O)C[C@H](O)[C@@H](C(=O)O)[C@H](C2)O3)C(O)C(N)C1O` (stereo not given in full): the T/C is, setting by setting: under setting [7], 110 % of control; under setting [8], 107 % of control.

`NCc1cc(O)c(O)c(O)c1`: the T/C is 107 % of control under setting [2], 101 % of control under setting [4] and 102 % of control under setting [6].

Consider `CCOC(=O)c1c[nH]c2ccc3c(nc(C)n3C)c2c1=O`, for which the T/C is, setting by setting: (dose: 50.0 mg/kg/injection, schedule: Q04DX003 (ip), vehicle: Klucel (hydroxypropylcellulose) (HPC)) 100 % of control; (dose: 100.0 mg/kg/injection, schedule: Q04DX003 (ip), vehicle: Klucel (hydroxypropylcellulose) (HPC)) 104 % of control; (dose: 200.0 mg/kg/injection, schedule: Q04DX003 (ip), vehicle: Klucel (hydroxypropylcellulose) (HPC)) 93 % of control; (dose: 400.0 mg/kg/injection, schedule: Q04DX003 (ip), vehicle: Klucel (hydroxypropylcellulose) (HPC)) 100 % of control; (dose: 800.0 mg/kg/injection, schedule: Q04DX003 (ip), vehicle: Klucel (hydroxypropylcellulose) (HPC)) 94 % of control.

Take `CC/C(=C(\c1ccccc1)c1ccc(OCCN(C)C)cc1)c1ccccc1`: the T/C is, setting by setting: (dose: 75.0 mg/kg/injection, schedule: Q04DX003 (ip), vehicle: suspension in saline) 109 % of control; (dose: 150.0 mg/kg/injection, schedule: Q04DX003 (ip), vehicle: suspension in saline) 101 % of control; (dose: 300.0 mg/kg/injection, schedule: Q04DX003 (ip), vehicle: suspension in saline) 96 % of control; (dose: 600.0 mg/kg/injection, schedule: Q04DX003 (ip), vehicle: suspension in saline) 95 % of control.

Consider `NC(Cc1ccc(N(CCCl)Cc2ccccc2)cc1)C(=O)O` (stereo not given), for which the T/C runs as follows: (dose: 25.0 mg/kg/injection, schedule: Q04DX003 (ip), vehicle: saline with Tween-80) 107 % of control; (dose: 50.0 mg/kg/injection, schedule: Q04DX003 (ip), vehicle: saline with Tween-80) 124 % of control; (dose: 200.0 mg/kg/injection, schedule: Q04DX003 (ip), vehicle: saline with Tween-80) 158 % of control and 163 % of control.

`COc1cccc2c1C(=O)C1=C(C2=O)c2c(O)cc(CO)cc2C(O)C1O` (stereo not given): the T/C is, setting by setting: (dose: 6.25 mg/kg/injection, schedule: Q04DX003 (ip), vehicle: saline + Tween-80 + alcohol) 98 % of control; under setting [7], 109 % of control; under setting [8], 112 % of control; (dose: 50.0 mg/kg/injection, schedule: Q04DX003 (ip), vehicle: saline + Tween-80 + alcohol) 109 % of control.

Turning to `C=Cc1cc(OC)c2c(c1)c(=O)oc1c2cc(OC)c2c(O)ccc(C3OC(C)C(O)C(C)(O)C3O)c21` (stereo not given), the T/C (dose: 600.0 mg/kg/injection, schedule: Q04DX003 (ip), vehicle: DMSO) was 86 % of control.
